From patent publication US20250098679A1, “HERBICIDAL PYRIDONE DERIVATIVES” (SYNGENTA CROP PROTECTION AG, priority 2021, published 2025)

Experiments:
Format in all cases: in vivo
Settings in all cases: evaluated after 13 days
Setaria faberi (SETFA) [1] = test: Pre-emergence Test, Setaria faberi (SETFA)
[2] = tested on: Echinochloa crus-galli (ECHCG); test: Pre-emergence Test, Echinochloa crus-galli (ECHCG)
Zea mays (ZEAMX) [3] = test: Pre-emergence Test, Zea mays (ZEAMX)
[4] = tested on: Ipomoea hederacea (IPOHE); test: Pre-emergence Test, Ipomoea hederacea (IPOHE)
[5] = tested on: Amaranthus palmeri (AMAPA); test: Pre-emergence Test, Amaranthus palmeri (AMAPA)
[6] = tested on: Amaranthus retoflexus (AMARE); test: Pre-emergence Test, Amaranthus retoflexus (AMARE)
Setaria faberi (SETFA) [7] = test: Post-emergence Test, Setaria faberi (SETFA); design: key to percentage damage caused to the plant, SETFA (five-point scale): 5=81-100%, 4=61-80%, 3=41-60%, 2=21-40%, 1=0-20% damage
Procedure, shortened: (§1)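 Spray application at 1000 g/ha unless otherwise stated. Damage was scored 13 days later as 1 (0-20%) to 5 (81-100%).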

[8] = tested on: Echinochloa crus-galli (ECHCG); test: Post-emergence Test, Echinochloa crus-galli (ECHCG); design: key to percentage damage caused to the plant, ECHCG (five-point scale): 5=81-100%, 4=61-80%, 3=41-60%, 2=21-40%, 1=0-20% damage
Procedure, shortened: as §1

Zea mays (ZEAMX) [9] = test: Post-emergence Test, Zea mays (ZEAMX); design: key to percentage damage caused to the plant, ZEAMX (five-point scale): 5=81-100%, 4=61-80%, 3=41-60%, 2=21-40%, 1=0-20% damage
Procedure, shortened: as §1

[10] = tested on: Ipomoea hederacea (IPOHE); test: Post-emergence Test, Ipomoea hederacea (IPOHE); design: key to percentage damage caused to the plant, IPOHE (five-point scale): 5=81-100%, 4=61-80%, 3=41-60%, 2=21-40%, 1=0-20% damage
Procedure, shortened: as §1

[11] = tested on: Amaranthus palmeri (AMAPA); test: Post-emergence Test, Amaranthus palmeri (AMAPA); design: key: 5=81-100%, 4=61-80%, 3=41-60%, 2=21-40%, 1=0-20% damage
Procedure, shortened: as §1

[12] = tested on: Amaranthus retoflexus (AMARE); test: Post-emergence Test, Amaranthus retoflexus (AMARE); design: key to percentage damage caused to the plant, AMARE (five-point scale): 5=81-100%, 4=61-80%, 3=41-60%, 2=21-40%, 1=0-20% damage
Procedure, shortened: as §1

| SMILES | Pre-emergence Test SETFA, percentage damage caused to the plant (five-point scale) (Setaria faberi (SETFA) [1]; 250 g/Ha (*)) | Pre-emergence Test SETFA, percentage damage caused to the plant (five-point scale) (Setaria faberi (SETFA) [1]; 1000 g/ha) | Pre-emergence Test ECHCG, percentage damage caused to the plant (five-point scale) ([2]; 250 g/Ha (*)) | Pre-emergence Test ECHCG, percentage damage caused to the plant (five-point scale) ([2]; 1000 g/ha) | Pre-emergence Test ZEAMX, percentage damage caused to the plant (five-point scale) (Zea mays (ZEAMX) [3]; 1000 g/ha) | Pre-emergence Test IPOHE, percentage damage caused to the plant (five-point scale) ([4]; 1000 g/ha) | Pre-emergence Test AMAPA, percentage damage caused to the plant (five-point scale) ([5]; 1000 g/ha) | Pre-emergence Test AMARE, percentage damage caused to the plant (five-point scale) ([6]; 1000 g/ha) | percentage damage caused to the plant, SETFA (five-point scale) (Setaria faberi (SETFA) [7]; 250 g/Ha) | percentage damage caused to the plant, SETFA (five-point scale) (Setaria faberi (SETFA) [7]; 1000 g/ha) | percentage damage caused to the plant, ECHCG (five-point scale) ([8]; 250 g/Ha) | percentage damage caused to the plant, ECHCG (five-point scale) ([8]; 1000 g/ha) | percentage damage caused to the plant, ZEAMX (five-point scale) (Zea mays (ZEAMX) [9]; 250 g/Ha) | percentage damage caused to the plant, ZEAMX (five-point scale) (Zea mays (ZEAMX) [9]; 1000 g/ha) | percentage damage caused to the plant, IPOHE (five-point scale) ([10]; 250 g/Ha) | percentage damage caused to the plant, IPOHE (five-point scale) ([10]; 1000 g/ha) | percentage damage caused to the plant, AMAPA (five-point scale) ([11]; 250 g/Ha) | percentage damage caused to the plant, AMAPA (five-point scale) ([11]; 1000 g/ha) | percentage damage caused to the plant, AMARE (five-point scale) ([12]; 250 g/Ha) | percentage damage caused to the plant, AMARE (five-point scale) ([12]; 1000 g/ha) | other results |
| --- | --- | --- | --- | --- | --- | --- | --- | --- | --- | --- | --- | --- | --- | --- | --- | --- | --- | --- | --- | --- | --- |
| CCn1c(Cn2ccc(C(F)(F)F)n2)cc(=O)c(C(=O)O)c1-c1ccc(Cl)c(Cl)c1 [Compound 2, 2-(3,4-dichlorophenyl)-1-ethyl-4-oxo-6-[[3-(trifluoromethyl)pyrazol-1-yl]methyl]pyridine-3-carboxylic acid] | 5 (5=81-100%) | 5 (5=81-100%) | 5 (5=81-100%) | 5 (5=81-100%) | 4 (4=61-80%) | 3 (3=41-60%) | 3 (3=41-60%) | 3 (3=41-60%) | 4 (4=61-80%) | 5 (5=81-100%) | 4 (4=61-80%) | 4 (4=61-80%) | 4 (4=61-80%) | 4 (4=61-80%) | 3 (3=41-60%) | 4 (4=61-80%) | 3 (3=41-60%) | 4 (4=61-80%) | 3 (3=41-60%) | 4 (4=61-80%) | Pre-emergence Test ZEAMX, percentage damage caused to the plant (five-point scale) (Zea mays (ZEAMX) [3]; 250 g/Ha (*)): 4 (4=61-80%); Pre-emergence Test IPOHE, percentage damage caused to the plant (five-point scale) ([4]; 250 g/Ha (*)): 4 (4=61-80%); Pre-emergence Test AMAPA, percentage damage caused to the plant (five-point scale) ([5]; 250 g/Ha (*)): 0; Pre-emergence Test AMARE, percentage damage caused to the plant (five-point scale) ([6]; 250 g/Ha (*)): 1 (1=0-20%) |
| CCn1c(Cn2ccc(Cl)n2)cc(=O)c(C(=O)O)c1-c1ccc(F)c(Cl)c1 [Compound 28, 2-(3-chloro-4-fluoro-phenyl)-6-[(3-chloropyrazol-1-yl)methyl]-1-ethyl-4-oxo-pyridine-3-carboxylic acid] |  | 5 (5=81-100%) |  | 5 (5=81-100%) | 0 | 1 (1=0-20%) | 0 | 0 | 4 (4=61-80%) | 4 (4=61-80%) | 3 (3=41-60%) | 4 (4=61-80%) | 0 | 4 (4=61-80%) | 4 (4=61-80%) | 1 (1=0-20%) | 1 (1=0-20%) | 2 (2=21-40%) | 1 (1=0-20%) | 0 |  |
| CCOC(=O)c1nn(Cc2cc(=O)c(C(=O)O)c(-c3ccc(Cl)c(Cl)c3)n2CC)cc1C [Compound 123, 2-(3,4-dichlorophenyl)-6-[(3-ethoxycarbonyl-4-methyl-pyrazol-1-yl)methyl]-1-ethyl-4-oxo-pyridine-3-carboxylic acid] |  | 1 (1=0-20%) |  | 0 | 0 | 0 | 1 (1=0-20%) | 0 | 0 | 1 (1=0-20%) | 2 (2=21-40%) | 1 (1=0-20%) | 0 | 1 (1=0-20%) | 0 | 2 (2=21-40%) | 0 |  | 0 | 1 (1=0-20%) |  |
| CCOC(=O)c1c(C)cnn1Cc1cc(=O)c(C(=O)O)c(-c2ccc(Cl)c(Cl)c2)n1CC [Compound 122, 2-(3,4-dichlorophenyl)-6-[(5-ethoxycarbonyl-4-methyl-pyrazol-1-yl)methyl]-1-ethyl-4-oxo-pyridine-3-carboxylic acid] | 1 (1=0-20%) |  | 0 |  |  |  |  |  |  |  |  |  |  |  |  |  |  |  |  |  | Pre-emergence Test ZEAMX, percentage damage caused to the plant (five-point scale) (Zea mays (ZEAMX) [3]; 250 g/Ha (*)): 0; Pre-emergence Test IPOHE, percentage damage caused to the plant (five-point scale) ([4]; 250 g/Ha (*)): 0; Pre-emergence Test AMAPA, percentage damage caused to the plant (five-point scale) ([5]; 250 g/Ha (*)): 1 (1=0-20%); Pre-emergence Test AMARE, percentage damage caused to the plant (five-point scale) ([6]; 250 g/Ha (*)): 0 |
| CCn1c(Cn2cc(C(=O)OC)cn2)cc(=O)c(C(=O)OC(C)(C)C)c1-c1ccc(Cl)c(Cl)c1 [Compound 61, tert-butyl 2-(3,4-dichlorophenyl)-1-ethyl-6-[(4-methoxycarbonyl-pyrazol-1-yl)methyl]-4-oxo-pyridine-3-carboxylate] |  | 1 (1=0-20%) |  |  | 0 | 0 | 1 (1=0-20%) | 1 (1=0-20%) |  | 1 (1=0-20%) |  | 0 |  | 0 |  | 0 |  | 0 |  | 1 (1=0-20%) |  |
| CCOC(=O)c1c(-c2ccc(Cl)c(Cl)c2)n(CC)c(Cn2ncc3cnc(Cl)cc32)cc1=O [Compound 52, ethyl 6-[(6-chloropyrazolo[4,3-c]pyridin-1-yl)methyl]-2-(3,4-dichlorophenyl)-1-ethyl-4-oxo-pyridine-3-carboxylate] |  | 0 |  |  | 0 | 0 | 1 (1=0-20%) | 1 (1=0-20%) |  | 1 (1=0-20%) |  | 1 (1=0-20%) |  | 0 |  | 2 (2=21-40%) |  | 2 (2=21-40%) |  | 0 |  |
